The values that follow come from patent US12673975B2, “Cyclic peptide, cell scaffold material, cell separating material, and medium” (FUJIFILM Corporation, priority 2019, dated 2026).

Starred links: 1 amine or outer side, 2 acyl side, 3 side chain; linkers in the order of their positions; H or OH if unused. Positions of bridges follow the written chain, without caps; N, C: chain ends. Non-standard residues stand in square brackets, D forms with d. Residues, ends and D or L forms follow the SMILES beside them. hCys = N[C@@H](CCS)C(=O)O; Dab = NCC[C@H](N)C(=O)O; Dap = NC[C@H](N)C(=O)O; X1 = O=C(C[*:2])[*:1]; X2 = O=C(C[*:1])[*:2]; βAla = NCCC(=O)O

The target in data set [1] is human integrin αvβ5 (Homo sapiens, UniProt P06756+P18084). Description: Evaluation of integrin binding property (surface plasmon resonance, Biacore 3000, immobilized cyclic peptide). Conditions: SPR, 25° C., HEPES buffer with 5 mM magnesium chloride, integrin 30-1,000 nM; read-out: Performance evaluation: Binding activity (dissociation constant between the cyclic peptide and human integrin αvβ5). The gist of the method: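 Human αvβ5 (30-1,000 nM) flowed for 10 min at 25 °C over immobilized cyclic peptide in 20 mM HEPES, 150 mM NaCl, 5 mM MgCl2, pH 7.4, followed by 30 min running buffer and 0.5 M EDTA regeneration. Dissociation constant from peptide minus unimmobilized channel, scored into standard grades.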
human integrin αvβ5, sequence (P06756 31-1048): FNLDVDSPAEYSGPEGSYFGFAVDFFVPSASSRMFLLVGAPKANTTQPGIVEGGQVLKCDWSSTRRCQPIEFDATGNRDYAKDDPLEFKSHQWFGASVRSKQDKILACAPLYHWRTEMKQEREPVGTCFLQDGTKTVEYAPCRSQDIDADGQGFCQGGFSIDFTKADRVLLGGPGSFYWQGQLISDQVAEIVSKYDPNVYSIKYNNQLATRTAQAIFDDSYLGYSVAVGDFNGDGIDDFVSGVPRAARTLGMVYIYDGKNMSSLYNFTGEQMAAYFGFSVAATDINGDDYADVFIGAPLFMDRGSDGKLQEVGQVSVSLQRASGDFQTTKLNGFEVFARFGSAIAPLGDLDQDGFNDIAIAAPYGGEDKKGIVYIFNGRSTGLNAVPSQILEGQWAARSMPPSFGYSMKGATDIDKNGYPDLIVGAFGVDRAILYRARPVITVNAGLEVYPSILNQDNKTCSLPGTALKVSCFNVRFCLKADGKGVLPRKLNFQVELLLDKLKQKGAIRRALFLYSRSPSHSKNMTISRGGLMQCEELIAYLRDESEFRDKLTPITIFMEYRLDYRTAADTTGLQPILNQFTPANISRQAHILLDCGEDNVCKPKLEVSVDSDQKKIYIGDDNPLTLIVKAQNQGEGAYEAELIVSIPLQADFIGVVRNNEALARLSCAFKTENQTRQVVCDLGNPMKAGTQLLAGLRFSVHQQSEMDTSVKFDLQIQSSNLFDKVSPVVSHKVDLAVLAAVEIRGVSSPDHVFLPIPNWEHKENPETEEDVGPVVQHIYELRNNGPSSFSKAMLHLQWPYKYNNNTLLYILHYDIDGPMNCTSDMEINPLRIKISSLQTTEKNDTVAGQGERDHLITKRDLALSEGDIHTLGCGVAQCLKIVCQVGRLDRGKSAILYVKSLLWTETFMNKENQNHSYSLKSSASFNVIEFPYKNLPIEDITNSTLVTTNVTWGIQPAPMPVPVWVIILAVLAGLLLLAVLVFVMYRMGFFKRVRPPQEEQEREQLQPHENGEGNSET
human integrin αvβ5, sequence (P18084 24-799): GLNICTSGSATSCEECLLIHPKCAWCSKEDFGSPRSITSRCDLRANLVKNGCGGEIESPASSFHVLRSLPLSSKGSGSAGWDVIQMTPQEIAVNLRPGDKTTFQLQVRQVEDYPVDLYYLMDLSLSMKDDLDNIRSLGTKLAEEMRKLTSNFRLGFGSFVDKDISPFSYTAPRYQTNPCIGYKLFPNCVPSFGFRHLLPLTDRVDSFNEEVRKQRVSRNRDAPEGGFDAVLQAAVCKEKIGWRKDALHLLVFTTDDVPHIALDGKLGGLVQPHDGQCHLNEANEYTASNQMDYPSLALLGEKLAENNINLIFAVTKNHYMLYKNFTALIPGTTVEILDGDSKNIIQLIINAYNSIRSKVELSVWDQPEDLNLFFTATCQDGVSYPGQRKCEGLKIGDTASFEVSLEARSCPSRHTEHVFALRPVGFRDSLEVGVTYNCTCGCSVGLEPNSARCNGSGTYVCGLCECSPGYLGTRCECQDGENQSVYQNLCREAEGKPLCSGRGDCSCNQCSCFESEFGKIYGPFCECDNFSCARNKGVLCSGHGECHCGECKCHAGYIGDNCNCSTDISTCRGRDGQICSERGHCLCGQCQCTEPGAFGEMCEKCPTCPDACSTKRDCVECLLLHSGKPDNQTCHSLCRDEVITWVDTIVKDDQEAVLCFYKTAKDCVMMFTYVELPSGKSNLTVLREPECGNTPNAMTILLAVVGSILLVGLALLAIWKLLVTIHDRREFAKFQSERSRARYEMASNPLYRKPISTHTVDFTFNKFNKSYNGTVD
Background: In SPR one partner is held on a chip, and binding of the other changes the refractive index at the surface.

Data set [2] can be described thus: Evaluation of molecule stability (alkali treatment, residual rate by LC/MS). Type of data set: physicochemical. Conditions: 500 μM peptide aqueous solution plus equivalent of 1 M sodium hydroxide, 15° C., 3 hours, LC/MS peak area. The gist of the method:
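Stability read as percent of summed LC/MS peak area remaining versus untreated peptide (C18, 45 °C, 10 mM ammonium formate pH 3, ESI positive/negative). Treatment: 500 μM peptide in water plus an equivalent of 1 M NaOH, 15 °C for 3 hours.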

Consider `C[C@H](NC(=O)[C@H](CCCCN)NC(=O)[C@H](CCCCN)NC(=O)[C@@H](N)CCCCN)C(=O)N[C@H]1CNC(=O)CSCC[C@@H](C(=O)N[C@@H](CC(=O)O)C(=O)O)NC(=O)[C@H](CCCNC(=N)N)NC(=O)[C@H](Cc2ccc(O)cc2)NC(=O)[C@H](CC(N)=O)NC(=O)[C@H](CC(=O)O)NC(=O)CNC(=O)[C@H](CCCNC(=N)N)NC(=O)[C@@H]2CCCN2C(=O)[C@H](CCC(=O)O)NC1=O` [Cyclic peptide 48, KKKA(Dap(acetyl))EPRGDNYR-(Hcy)-D] (H-KKKA[Dap]EPRGDNYR[hCys]D-OH; linker 5-14 via X1), for which the Kd in data set [1] is < 50 nM. For the same molecule, the “Performance evaluation: Stability (residual rate of cyclic peptide after alkali treatment)” value in data set [2] is “B (The residual rate of the cyclic peptide is 50% or more and less than 70%.)”.
As for `N=C(N)NCCC[C@@H]1NC(=O)[C@H](Cc2ccc(O)cc2)NC(=O)[C@H](CC(N)=O)NC(=O)[C@H](CC(=O)O)NC(=O)CNC(=O)[C@H](CCCNC(=N)N)NC(=O)[C@@H]2CCCN2C(=O)[C@H](CCC(=O)O)NC(=O)[C@@H](NC(=O)[C@H](CCCCN)NC(=O)[C@H](CCCCN)NC(=O)[C@@H](N)CCCCN)CCSCC(=O)NCC[C@@H](C(N)=O)NC1=O` [Cyclic peptide 49, KKK-(Hcy)-EPRGDNYR(Dab(acetyl))] (H-KKK[hCys]EPRGDNYR[Dab]-NH2; linker 4-13 via X2), the Kd in data set [1] was 50 to 100 nM. The “Performance evaluation: Stability (residual rate of cyclic peptide after alkali treatment)” value in data set [2] is on record as “A (The residual rate of the cyclic peptide is 70% or more.)”.
In the same order, the values of `C[C@H](NC(=O)[C@H](CCCCN)NC(=O)[C@H](CCCCN)NC(=O)[C@@H](N)CCCCN)C(=O)N[C@H]1CCSCC(=O)NCC[C@@H](C(N)=O)NC(=O)[C@H](CCCNC(=N)N)NC(=O)[C@H](Cc2ccc(O)cc2)NC(=O)[C@H](CC(N)=O)NC(=O)[C@H](CC(=O)O)NC(=O)CNC(=O)[C@H](CCCNC(=N)N)NC(=O)[C@@H]2CCCN2C(=O)[C@H](CCC(=O)O)NC1=O` [Cyclic peptide 50, KKKA-(Hcy)-EPRGDNYR(Dab(acetyl))] (H-KKKA[hCys]EPRGDNYR[Dab]-NH2; linker 5-14 via X2) are 100 to 200 nM and “A (The residual rate of the cyclic peptide is 70% or more.)”.
The matching figures for `N=C(N)NCCC[C@@H]1NC(=O)[C@H](Cc2ccc(O)cc2)NC(=O)[C@H](CC(N)=O)NC(=O)[C@H](CC(=O)O)NC(=O)CNC(=O)[C@H](CCCNC(=N)N)NC(=O)[C@@H]2CCCN2C(=O)[C@H](CCC(=O)O)NC(=O)[C@@H](NC(=O)CCNC(=O)[C@H](CCCCN)NC(=O)[C@H](CCCCN)NC(=O)[C@@H](N)CCCCN)CCSCC(=O)NCC[C@@H](C(N)=O)NC1=O` [Cyclic peptide 51, KKKβA-(Hcy)-EPRGDNYR(Dab(acetyl))] (H-KKK[βAla][hCys]EPRGDNYR[Dab]-NH2; linker 5-14 via X2): 100 to 200 nM and “A (The residual rate of the cyclic peptide is 70% or more.)”.
Consider `N=C(N)NCCC[C@@H]1NC(=O)[C@H](Cc2ccc(O)cc2)NC(=O)[C@H](CC(N)=O)NC(=O)[C@H](CC(=O)O)NC(=O)CNC(=O)[C@H](CCCNC(=N)N)NC(=O)[C@@H]2CCCN2C(=O)[C@H](CCC(=O)O)NC(=O)[C@@H](NC(=O)[C@H](CCCCN)NC(=O)[C@H](CCCCN)NC(=O)[C@@H](N)CCCCN)CNC(=O)CSCC[C@@H](C(N)=O)NC1=O` [Cyclic peptide 52, KKK(Dap(acetyl))EPRGDNYR-(Hcy)] (H-KKK[Dap]EPRGDNYR[hCys]-NH2; linker 4-13 via X1), for which the Kd in data set [1] is 50 to 100 nM. Further, the “Performance evaluation: Stability (residual rate of cyclic peptide after alkali treatment)” value in data set [2] is “B (The residual rate of the cyclic peptide is 50% or more and less than 70%.)”.
On to `C[C@H](NC(=O)[C@H](CCCCN)NC(=O)[C@H](CCCCN)NC(=O)[C@@H](N)CCCCN)C(=O)N[C@H]1CNC(=O)CSCC[C@@H](C(N)=O)NC(=O)[C@H](CCCNC(=N)N)NC(=O)[C@H](Cc2ccc(O)cc2)NC(=O)[C@H](CC(N)=O)NC(=O)[C@H](CC(=O)O)NC(=O)CNC(=O)[C@H](CCCNC(=N)N)NC(=O)[C@@H]2CCCN2C(=O)[C@H](CCC(=O)O)NC1=O` [Cyclic peptide 53, KKKA(Dap(acetyl))EPRGDNYR-(Hcy)] (H-KKKA[Dap]EPRGDNYR[hCys]-NH2; linker 5-14 via X1), for which, in data set [1], the Kd lay within 50 to 100 nM. Moreover, the “Performance evaluation: Stability (residual rate of cyclic peptide after alkali treatment)” value in data set [2] was “B (The residual rate of the cyclic peptide is 50% or more and less than 70%.)”.
Take `CC[C@H](C)[C@@H]1NC(=O)[C@@H](NC(=O)CNC(=O)[C@H](CCCCN)NC(=O)[C@H](CCCCN)NC(=O)[C@@H](N)CCCCN)CCSCC(=O)NCC[C@@H](C(=O)N[C@@H](C)C(=O)O)NC(=O)[C@H](CCCNC(=N)N)NC(=O)[C@H](Cc2ccccc2)NC(=O)[C@H]([C@@H](C)O)NC(=O)[C@H](CC(=O)O)NC(=O)CNC(=O)[C@H](CCCNC(=N)N)NC(=O)[C@@H]2CCCN2C1=O` [Cyclic peptide 54, KKKG-(Hcy)-IPRGDTFR(Dab(acetyl))A] (H-KKKG[hCys]IPRGDTFR[Dab]A-OH; linker 5-14 via X2): the Kd in data set [1] is < 50 nM. Further, the “Performance evaluation: Stability (residual rate of cyclic peptide after alkali treatment)” value in data set [2] is on record as “A (The residual rate of the cyclic peptide is 70% or more.)”.
As to `CC[C@H](C)[C@@H]1NC(=O)[C@@H](NC(=O)CNC(=O)[C@H](CCCCN)NC(=O)[C@H](CCCCN)NC(=O)[C@@H](N)CCCCN)CCSCC(=O)NCC[C@@H](C(=O)NCC(=O)O)NC(=O)[C@H](CCCNC(=N)N)NC(=O)[C@H](Cc2ccccc2)NC(=O)[C@H]([C@@H](C)O)NC(=O)[C@H](CC(=O)O)NC(=O)CNC(=O)[C@H](CCCNC(=N)N)NC(=O)[C@@H]2CCCN2C1=O` [Cyclic peptide 55, KKKG-(Hcy)-IPRGDTFR(Dab(acetyl))G] (H-KKKG[hCys]IPRGDTFR[Dab]G-OH; linker 5-14 via X2), the Kd in data set [1] was < 50 nM. Moreover, the “Performance evaluation: Stability (residual rate of cyclic peptide after alkali treatment)” value in data set [2] was “A (The residual rate of the cyclic peptide is 70% or more.)”.
On to `CC[C@H](C)[C@@H]1NC(=O)[C@@H](NC(=O)[C@H](C)NC(=O)[C@H](CCCCN)NC(=O)[C@H](CCCCN)NC(=O)[C@@H](N)CCCCN)CCSCC(=O)NCC[C@@H](C(=O)N[C@@H](C)C(=O)O)NC(=O)[C@H](CCCNC(=N)N)NC(=O)[C@H](Cc2ccccc2)NC(=O)[C@H]([C@@H](C)O)NC(=O)[C@H](CC(=O)O)NC(=O)CNC(=O)[C@H](CCCNC(=N)N)NC(=O)[C@@H]2CCCN2C1=O` [Cyclic peptide 56, KKKA-(Hcy)-IPRGDTFR(Dab(acetyl))A] (H-KKKA[hCys]IPRGDTFR[Dab]A-OH; linker 5-14 via X2), for which the Kd in data set [1] is < 50 nM. Besides, the “Performance evaluation: Stability (residual rate of cyclic peptide after alkali treatment)” value in data set [2] is “A (The residual rate of the cyclic peptide is 70% or more.)”.
In the same order, the values of `CC[C@H](C)[C@@H]1NC(=O)[C@@H](NC(=O)[C@H](CCCCN)NC(=O)[C@H](CCCCN)NC(=O)[C@@H](N)CCCCN)CCSCC(=O)NCC[C@@H](C(=O)N[C@@H](C)C(=O)O)NC(=O)[C@H](CCCNC(=N)N)NC(=O)[C@H](Cc2ccccc2)NC(=O)[C@H]([C@@H](C)O)NC(=O)[C@H](CC(=O)O)NC(=O)CNC(=O)[C@H](CCCNC(=N)N)NC(=O)[C@@H]2CCCN2C1=O` [Cyclic peptide 57, KKK-(Hcy)-IPRGDTFR(Dab(acetyl))A] (H-KKK[hCys]IPRGDTFR[Dab]A-OH; linker 4-13 via X2) are < 50 nM and “A (The residual rate of the cyclic peptide is 70% or more.)”.
